Measured values from patent US20090012144A1 (priority 2000, published 2009).
Like-named read-outs stand apart in the source and are kept apart here. Blank lines part the entries; values can stand above or below the compound they belong to.

Legend:
Spodoptera exigua = Spodoptera exigua test (cabbage leaves, dip); assay type: in vivo
Procedure: (§1) [table] To produce a suitable preparation of active compound, 1 part by weight of active compound is mixed with the stated amounts of solvent and emulsifier, and the concentrate is diluted with emulsifier-containing water to the desired concentration. Cabbage leaves (Brassica oleracea) are treated by being dipped into the preparation of active compound of the desired concentration and are populated with caterpillars of the army worm (Spodoptera exigua) while the leaves are still moist. After the desired period of time, the kill in % is determined. 100% means that all caterpillars have been killed; 0% means that none of the caterpillars have been killed.

[1] = log P determination by HPLC (reversed-phase C 18), EEC Directive 79/831 Annex V.A8; assay type: physicochemical
Procedure: The log P values given in the tables and Preparation Examples above are determined in accordance with EEC Directive 79/831 Annex V.A8 by HPLC (High Performance Liquid Chromatography) using a reversed-phase column (C 18). Temperature: 43° C. […]
Calibration was carried out using unbranched alkan-2-ones (having 3 to 16 carbon atoms) with known log P values (determination of the log P values by the retention times using linear interpolation between two successive […]).

Plutella xylostella = test: Plutella test (cabbage leaves, dip); assay type: in vivo
Procedure: as §1, with “diamond back moth (Plutella xylostella)” for “army worm (Spodoptera exigua)”

Spodoptera frugiperda = Spodoptera frugiperda test (cabbage leaves, dip); assay type: in vivo
Procedure: as §1, with “frugiperda)” for “exigua)”

[2] = reversed-phase C18 HPLC column, pH 2.3, HPLC, pH 2.3, 43° C., read-out: log P (pH 2.3)
[3] = HPLC, pH 2.3, 43° C., read-out: log P (pH 2.3)

Structure (SMILES): Fc1cccc(F)c1C1=N[C@H](c2ccc(-c3ccc(OC(F)(F)C(F)F)cc3)cc2)CC1
Kill rate in % after 6 d (Spodoptera exigua; 1.6 ppm): 0%

chromatographic logP [1, 2]: 4.08
Structure (SMILES): Fc1cccc(F)c1C1=N[C@@H](c2ccc(-c3ccc(OC(F)(F)F)cc3)cc2)CC1 [I-3, (2R)-5-(2,6-difluorophenyl)-2-[4′-(trifluoromethoxy)-1,1′-biphenyl-4-yl]-3,4-dihydro-2H-pyrrole]

Structure (SMILES): Oc1ccc(-c2ccc([C@H]3CCC(c4c(F)cccc4F)=N3)cc2)cc1 [I-9]
chromatographic logP [1, 3]: 1.93

chromatographic logP [1, 2]: 3.92 | chromatographic logP ([1]; reversed-phase C18 HPLC column, pH 2.3, pH not given, read-out: log p/m.p.: log P): 3.92
Structure (SMILES): O=S(=O)(c1ccc(-c2ccc([C@H]3CCC(c4c(F)cccc4F)=N3)cc2)cc1)C(F)(F)F [I-11, (2R)-5-(2,6-difluorophenyl)-2-{4′-[(trifluoromethyl)sulphonyl]-1,1′-biphenyl-4-yl}-3,4-dihydro-2H-pyrrole]

chromatographic logP [1, 2]: 2.74
Structure (SMILES): Fc1cccc(F)c1C1=N[C@@H](c2ccc(Br)cc2)CC1 [I-15, (2R)-2-(4-bromophenyl)-5-(2,6-difluorophenyl)-3,4-dihydro-2H-pyrrole]

chromatographic logP [1, 2]: 2.85
Structure (SMILES): N#Cc1ccc(-c2ccc([C@H]3CCC(c4c(F)cccc4F)=N3)cc2)cc1 [I-17]

chromatographic logP ([1]; reversed-phase C18 HPLC column, pH 7, HPLC, pH 7, read-out: log P (pH 7)): 4.47
Structure (SMILES): CC1(C)OB(c2ccc([C@H]3CCC(c4c(F)cccc4F)=N3)cc2)OC1(C)C [I-b-1, (2R)-5-(2,6-difluorophenyl)-2-[4-(4,4,5,5-tetramethyl-1,3,2-dioxaborolan-2-yl)phenyl]-3,4-dihydro-2H-pyrrole]

Structure (SMILES): CC(C)(C)OC(=O)N[C@H](CCC(=O)c1c(F)cccc1F)c1ccc(-c2ccc(OC(F)(F)F)cc2)cc1 [IV-1, tert-butyl (1R)-4-(2,6-difluorophenyl)-4-oxo-1-[4′-(trifluoromethoxy)-1,1′-biphenyl-4-yl]butylcarbamate]
chromatographic logP [1, 3]: 5.18

Structure (SMILES): CC(C)(C)OC(=O)N[C@H](CCC(=O)c1c(F)cccc1F)c1ccc(Br)cc1 [IV-2, tert-butyl (1R)-1-(4-bromophenyl)-4-(2,6-difluorophenyl)-4-oxobutylcarbamate]
chromatographic logP [1, 3]: 4.22

Structure (SMILES): CC(C)(C)OC(=O)N[C@H](CCC(=O)c1c(F)cccc1F)c1ccc(-c2ccc(C#N)cc2)cc1 [IV-4]
chromatographic logP [1, 3]: 4.1

chromatographic logP [1, 2]: 4.55
Structure (SMILES): O=C1CC[C@@]2(c3ccc(-c4ccc(OC(F)(F)F)cc4)cc3)OC[C@H](c3ccccc3)N12 [IX-1, (3S,7aS)-3-Phenyl-7a-[4′-(trifluoromethoxy)-1,1′-biphenyl-4-yl]tetrahydropyrrolo-[2,1-b][1,3]oxazol-5(6H)-one]

log P (pH 2.3) ([1]; HPLC, pH 2.3, 43° C.): log P (pH 2.3) = 3.36 (purity 92.3%)
Structure (SMILES): O=C1CC[C@@]2(c3ccc(Br)cc3)OC[C@H](c3ccccc3)N12 [IX-2, (3S,7aS)-7a-(4-Bromophenyl)-3-phenyltetrahydropyrrolo[2,1-b][1,3],oxazol-5(6H)-one]

Structure (SMILES): CC(C)(C)OC(=O)N1C(=O)CC[C@@H]1c1ccc(-c2ccc(OC(F)(F)F)cc2)cc1 [V-1, tert-butyl (5R)-2-oxo-5-[4′-(trifluoromethoxy)-1,1′-biphenyl-4-yl]-1-pyrrolidine carboxylate]
chromatographic logP [1, 3]: 4.32

chromatographic logP [1, 2]: 3.04
Structure (SMILES): CC(C)(C)OC(=O)N1C(=O)CC[C@@H]1c1ccc(Br)cc1 [V-2, tert-butyl (2R)-2-(4-bromophenyl)-5-oxo-1-pyrrolidinecarboxylate]

chromatographic logP [1, 2]: 3.02
Structure (SMILES): CC(C)(C)OC(=O)N1C(=O)CC[C@@H]1c1ccc(-c2ccc(C#N)cc2)cc1 [V-4]

chromatographic logP [1, 2]: 2.95
Structure (SMILES): O=C1CC[C@H](c2ccc(-c3ccc(OC(F)(F)F)cc3)cc2)N1 [VII-1, (5R)-5-[4′-(Trifluoromethoxy)-1,1′-biphenyl-4-yl]-2-pyrrolidinone]

chromatographic logP [1, 2]: 3.54
Structure (SMILES): O=C1CC[C@H](c2ccc(Br)cc2)N1 [VII-2, (5R)-5-(4-Bromophenyl)-2-pyrrolidinone]

chromatographic logP [1, 2]: 4.01
Structure (SMILES): COC(=O)CCC(=O)c1ccc(-c2ccc(OC(F)(F)F)cc2)cc1 [VIII-a-1, Methyl-4-oxo-4-[4′-(trifluoromethoxy)-1,1′-biphenyl-4-yl]butanoate]

chromatographic logP [1, 2]: 3.8
Structure (SMILES): O=C1CC[C@H](c2ccc(-c3ccc(OC(F)(F)F)cc3)cc2)N1[C@H](CO)c1ccccc1 [X-1, (5R)-1-[(1S)-2-Hydroxy-1-phenylethyl]-5-[4′-(trifluoromethoxy)-1,1′-biphenyl-4-yl]-2-pyrrolidinone]

chromatographic logP [1, 2]: 2.58
Structure (SMILES): O=C1CC[C@H](c2ccc(Br)cc2)N1[C@H](CO)c1ccccc1 [X-2, (5R)-5-(4-Bromophenyl)-1-[(1S)-2-hydroxy-1-phenylethyl]-2-pyrrolidinone]

chromatographic logP [1, 2]: 4.78
Structure (SMILES): O=C1CC[C@H](c2ccc(-c3ccc(OC(F)(F)F)cc3)cc2)N1[C@H](CCl)c1ccccc1 [XI-1, (5R)-1-[(1S)-2-Chloro-1-phenylethyl]-5-[4′-(trifluoromethoxy)-1,1′-biphenyl-4-yl]-2-pyrrolidinone]

chromatographic logP [1, 2]: 3.61
Structure (SMILES): O=C1CC[C@H](c2ccc(Br)cc2)N1[C@H](CCl)c1ccccc1 [XI-2, (5R)-5-(4-Bromophenyl)-1-[(1S)-2-chloro-1-phenylethyl]-2-pyrrolidinone]

chromatographic logP [1, 2]: 4.35
Structure (SMILES): C=C(c1ccccc1)N1C(=O)CC[C@@H]1c1ccc(-c2ccc(OC(F)(F)F)cc2)cc1 [XII-1, (5R)-1-(1-Phenylvinyl)-5-[4′-(trifluoromethoxy)-1,1′-biphenyl-4-yl]-2-pyrrolidinone]

chromatographic logP [1, 2]: 3.18
Structure (SMILES): C=C(c1ccccc1)N1C(=O)CC[C@@H]1c1ccc(Br)cc1 [XII-2, (5R)-5-(4-Bromophenyl)-1-(1-phenylvinyl)-2-pyrrolidinone]

log P (pH 2.3) ([1]; HPLC, pH 2.3, 43° C.): 3.42 | chromatographic logP [1, 2]: 3.34
Structure (SMILES): C=CCNC(=O)CCC(=O)c1ccc(-c2ccc(OC(F)(F)F)cc2)cc1 [XV-1, N-Allyl-4-oxo-4-[4′-(trifluoromethoxy)-1,1′-biphenyl-4-yl]butanamide]

chromatographic logP [1, 2]: 2.99
Structure (SMILES): C=CCNC(=O)CC[C@H](O)c1ccc(-c2ccc(OC(F)(F)F)cc2)cc1 [XVI-1, (4S)—N-Allyl-4-hydroxy-4-[4′-(trifluoromethoxy)-1,1′-biphenyl-4-yl]butanamide]

chromatographic logP [1, 2]: 3.88
Structure (SMILES): C=CCN1C(=O)CC[C@@H]1c1ccc(-c2ccc(OC(F)(F)F)cc2)cc1 [XVII-1, (5R)-1-Allyl-5-[4′-(trifluoromethoxy)-1,1′-biphenyl-4-yl]-2-pyrrolidinone]

Structure (SMILES): Fc1cccc(F)c1C1=NC(c2ccc(-c3ccc(OC(F)(F)F)cc3)cc2)CC1 (stereo not shown) [drawing 71]
Kill rate in % after 6 d (Plutella xylostella; 0.01 ppm): 0%

Structure (SMILES): Fc1cccc(F)c1C1=N[C@@H](c2ccc(-c3ccc(OC(F)(F)F)cc3)cc2)CC1 [drawing 72]
Kill rate in % after 6 d (Plutella xylostella; 0.01 ppm): 100%

Structure (SMILES): Fc1cccc(F)c1C1=N[C@H](c2ccc(-c3ccc(OC(F)(F)F)cc3)cc2)CC1 [drawing 73]
Kill rate in % after 6 d (Plutella xylostella; 1.6 ppm): 0%

Structure (SMILES): Fc1cccc(F)c1C1=NC(c2ccc(-c3ccc(SC(F)(F)F)cc3)cc2)CC1 (stereo not shown) [drawing 74]
Kill rate in % after 6 d (Plutella xylostella; 0.0128 ppm): 10%

Structure (SMILES): Fc1cccc(F)c1C1=N[C@@H](c2ccc(-c3ccc(SC(F)(F)F)cc3)cc2)CC1 [drawing 75]
Kill rate in % after 6 d (Plutella xylostella; 0.0128 ppm): 45%

Structure (SMILES): Fc1cccc(F)c1C1=N[C@H](c2ccc(-c3ccc(SC(F)(F)F)cc3)cc2)CC1 [drawing 76]
Kill rate in % after 6 d (Plutella xylostella; 1.6 ppm): 5%

Structure (SMILES): Fc1cccc(F)c1C1=NC(c2ccc(-c3ccc(OC(F)(F)F)cc3)cc2)CC1 (stereo not shown) [drawing 80]
Kill rate in % after 6 d (Spodoptera exigua; 0.04 ppm): 55%

Structure (SMILES): Fc1cccc(F)c1C1=N[C@@H](c2ccc(-c3ccc(OC(F)(F)F)cc3)cc2)CC1 [drawing 81]
Kill rate in % after 6 d (Spodoptera exigua; 0.04 ppm): 100%

Structure (SMILES): Fc1cccc(F)c1C1=N[C@H](c2ccc(-c3ccc(OC(F)(F)F)cc3)cc2)CC1 [drawing 82]
Kill rate in % after 6 d (Spodoptera exigua; 8 ppm): 0%

Structure (SMILES): Fc1cccc(F)c1C1=N[C@@H](c2ccc(-c3ccc(SC(F)(F)F)cc3)cc2)CC1 [drawing 83]
Kill rate in % after 6 d (Spodoptera exigua; 1.6 ppm): 100%

Structure (SMILES): Fc1cccc(F)c1C1=N[C@H](c2ccc(-c3ccc(SC(F)(F)F)cc3)cc2)CC1 [drawing 84]
Kill rate in % after 6 d (Spodoptera exigua; 1.6 ppm): 0%

Structure (SMILES): Fc1cccc(F)c1C1=NC(c2ccc(-c3ccc(OC(F)(F)F)cc3)cc2)CC1 (stereo not shown) [drawing 88]
Kill rate in % after 6 d (Spodoptera frugiperda; 0.02 ppm): 25%

Structure (SMILES): Fc1cccc(F)c1C1=N[C@@H](c2ccc(-c3ccc(OC(F)(F)F)cc3)cc2)CC1 [drawing 89]
Kill rate in % after 6 d (Spodoptera frugiperda; 0.02 ppm): 100%

Structure (SMILES): Fc1cccc(F)c1C1=N[C@H](c2ccc(-c3ccc(OC(F)(F)F)cc3)cc2)CC1 [drawing 90]
Kill rate in % after 6 d (Spodoptera frugiperda; 8 ppm): 0%

Structure (SMILES): Fc1cccc(F)c1C1=NC(c2ccc(-c3ccc(SC(F)(F)F)cc3)cc2)CC1 (stereo not shown) [drawing 91]
Kill rate in % after 6 d (Spodoptera frugiperda; 0.0128 ppm): 20%

Structure (SMILES): Fc1cccc(F)c1C1=N[C@@H](c2ccc(-c3ccc(SC(F)(F)F)cc3)cc2)CC1 [drawing 92]
Kill rate in % after 6 d (Spodoptera frugiperda; 0.0128 ppm): 65%

Structure (SMILES): Fc1cccc(F)c1C1=N[C@H](c2ccc(-c3ccc(SC(F)(F)F)cc3)cc2)CC1 [drawing 93]
Kill rate in % after 6 d (Spodoptera frugiperda; 1.6 ppm): 10%
